Experiments:
[1] = tested on: DLD-1-cancer cells; details: DLD-1 cells; Huang et al., 2009, Nature; cited from earlier work
[2] = molecular target: T1, Tankyrase-1 (Homo sapiens, UniProt O95271); assay: Tankyrase 1 autoparsylation assay (HTRF enzyme assay); assay type: biochemical; details: GST-tagged Tankyrase-1 (1023-1327 aa)
T1 construct: GST-tagged Tankyrase-1 (1023-1327 aa)
Experimental: (§1) Biochemical activity testing of Tankyrase 1 and 2: Autoparsylation assay
(§2) The autoparsylation assay is run in two steps: the enzymatic reaction in which GST-tagged Tankyrase-1, resp Tankyrase-2 transferred biotinylated ADP-ribose to itself from biotinylated NAD as co-substrate and the detection reaction where a time resolved FRET between cryptate labelled anti-GST bound to the GST tag of the enzyme and Xlent® labelled-streptavidin bound the biotin-parsylation residue is analysed. The autoparsylation activity was detectable directly via the increase in HTRF signal.
(§3) The autoparsylation assay is performed as 384-well HTRF® (Cisbio, Codolet, France) assay format in Greiner low volume nb 384-well microtiter plates and is used for high throughput screen. 250 nM GST-tagged Tankyrase-1 (1023-1327 aa), respectively about 250 nM GST-tagged Tankyrase-2 (873-1166 aa) and 5 μM bio-NAD (Biolog, Life science Inst., Bremen, Germany) as co-substrate are incubated in a total volume of 5 μl (50 mM HEPES, 4 mM Mg-chloride, 0.05% Pluronic F-68, 1.4 mM DTT, 0.5% DMSO, pH 7.7) in the absence or presence of the test compound (10 dilution concentrations) for 90 min at 30° C. The reaction is stopped by the addition of 1 μl 50 mM EDTA solution. 2 μl of the detection solution (1.6 μM SA-Xlent® (Cisbio, Codolet, France), 7.4 nM Anti-GST-K® (Eu-labelled anti-GST, Cisbio, Codolet, France) in 50 mM HEPES, 800 mM KF, 0.1% BSA, 20 mM EDTA, 0.1% CHAPS, pH 7.0) are added. After 1 h incubation at room temperature the HTRF is measured with an Envision multimode reader (Perkin Elmer LAS Germany GmbH) at excitation wavelength 340 nm (laser mode) and emission wavelengths 615 nm and 665 nm. The ratio of the emission signals is determined. The full value used is the inhibitor-free reaction. The pharmacological zero value used is XAV-939 (Tocris) in a final concentration of 5 μM. The inhibitory values (IC50) are determined using either the program Symyx Assay Explorer® or Condosseo® from GeneData.

[3] = tested on: tankyrase 1/2; assay: Cellular inhibition of tankyrase: increase of Axin2 level in DLD1 cells (Luminex); assay type: cell-based; details: DLD1 colon carcinoma cells, 24 hours, read-out: EC50 tankyrase 1/2 (cell assay)
Experimental: Measurement of Cellular Inhibition of Tankyrase
Since Tankyrases have been described to modulate cellular level of Axin2 (Huang et al., 2009; Nature) the increase of Axin2 level is used as read-out for determination of cellular inhibition of Tankyrases in a Luminex based assay.
Cells of the colon carcinoma cell line DLD1 are plated in 96 well plates with 1.5×10^4 cells per well. Next day, cells are treated with a serial dilution of test compound in seven steps as triplicates with a final DMSO concentration of 0.3%. After 24 hours, cells are lysed in lysis buffer (20 mM Tris/HCl pH 8.0, 150 mM NaCl, 1% NP40, 10% Glycerol) and lysates are cleared by centrifugation through a 96 well filter plate (0.65 μm). Axin2 protein is isolated from cell lysates by incubation with a monoclonal anti-Axin2 antibody (R&D Systems #MAB6078) that is bound to fluorescent carboxybeads. Then, bound Axin2 is specifically detected with a polyclonal anti-Axin2 antibody (Cell Signaling #2151) and an appropriate PE-fluorescent secondary antibody. The amount of isolated Axin2 protein is determined in a Luminex^200 machine (Luminex Corporation) according to the manufacturer's instruction by counting 100 events per well. Inhibition of Tankyrase by test compounds results in higher levels of Axin2 which directly correlates with an increase of detectable fluorescence. As controls cells are treated with solvent alone (neutral control) and with a Tankyrase reference inhibitor IWR-2 (3E-06 M) which refers as control for maximum increase of Axin2. For analysis, the obtained data are normalized against the untreated solvent control and fitted for determination of the EC50 values using the Assay Explorer software (Accelrys).

[4] = molecular target: T2, Tankyrase-2 (Homo sapiens, UniProt Q9H2K2); assay: Tankyrase 2 autoparsylation assay (HTRF enzyme assay); assay type: biochemical; details: GST-tagged Tankyrase-2 (873-1166 aa)
T2 construct: GST-tagged Tankyrase-2 (873-1166 aa)
Experimental: as §1, §2, §3

[5] = molecular target: T3, TNKS1 (Homo sapiens, UniProt O95271); assay: TNKS1 activity ELISA (autoparsylation assay); assay type: biochemical; details: GST-tagged Tnks-1 (1023-1327 aa), luminescence
T3 construct: GST-tagged Tnks-1 (1023-1327 aa, prepared in-house); made in house
Experimental: Description of the TNKS1 and TNKS2 ELISA Assay
Biochemical activity testing of TNKS 1 and 2: activity ELISA (Autoparsylation assay)
For analysis of autoparsylation activity of TNKS 1 and 2 an activity ELISA iss performed: In the first step GST tagged TNKS is captured on a Glutathione coated plate. Then the activity assay with biotinylated NAD is performed in the absence/presence of the compounds. During the enzymatic reaction GST tagged TNKS transfers biotinylated ADP-ribose to itself from biotinylated NAD as co-substrate. For the detection streptavidin-HRP conjugate is added that binds to the biotinylated TNKS and is thereby captured to the plates. The amount of biotinylated resp. autoparsylated TNKS is detected with a luminescence substrate for HRP. The level of the luminescence signal correlats directly with the amount of autoparsylated TNKS and therefore with activity of TNKS.
The acitivity ELISA is performed in 384 well Glutathione coated microtiter plates (Express capture Glutathione coated plate, Biocat, Heidelberg, Germany). The plates are pre-equilibrated with PBS. Then the plates are incubated with 50 μl 20 ng/well GST-tagged Tnks-1 (1023-1327 aa, prepared in-house), respectively GST-tagged Tnks-2 (873-1166 aa, prepared in-house) in assay buffer (50 mM HEPES, 4 mM Mg-chloride, 0.05% Pluronic F-68, 2 mM DTT, pH 7.7) overnight at 4° C. The plates are washed 3 times with PBS-Tween-20. The wells are blocked by incubation at room temperature for 20 minutes with 50 μl blocking buffer (PBS, 0.05% Tween-20, 0.5% BSA). Afterwards the plates are washed 3 times with PBS-Tween-20. The enzymatic reaction is performed in 50 μl reaction solution (50 mM HEPES, 4 mM Mg-chloride, 0.05% Pluronic F-68, 1.4 mM DTT, 0.5% DMSO, pH 7.7) with10 μM bio-NAD (Biolog, Life science Inst., Bremen, Germany) as co-substrate in the absence or presence of the test compound (10 dilution concentrations) for 1 hour at 30° C. The reaction is stopped by 3 times washing with PBS-Tween-20. For the detection 50 μl of 20 ng/μl Streptavidin, HRP conjugate (MoBiTec, Göttingen, Germany) in PBS/0.05% Tween-20/0.01% BSA are added and the plates are incubated for 30 minutes at room temperature. After three times washing with PBS-Tween-20 50 μl of SuperSignal ELISA Femto Maximum sensitivity substrate solution (ThermoFisherScientific (Pierce), Bonn, Germany) are added. Following a 1 minute incubation at room temperature luminescence signals are measured with an Envision multimode reader (Perkin Elmer LAS Germany GmbH) at 700 nm. The full value used is the inhibitor-free reaction. The pharmacological zero value used is XAV-939 (Tocris) in a final concentration of 5 μM. The inhibitory values (IC50) are determined using either the program Symyx Assay Explorer® or Condosseo® from GeneData.

T2 sequence (Q9H2K2 873-1166): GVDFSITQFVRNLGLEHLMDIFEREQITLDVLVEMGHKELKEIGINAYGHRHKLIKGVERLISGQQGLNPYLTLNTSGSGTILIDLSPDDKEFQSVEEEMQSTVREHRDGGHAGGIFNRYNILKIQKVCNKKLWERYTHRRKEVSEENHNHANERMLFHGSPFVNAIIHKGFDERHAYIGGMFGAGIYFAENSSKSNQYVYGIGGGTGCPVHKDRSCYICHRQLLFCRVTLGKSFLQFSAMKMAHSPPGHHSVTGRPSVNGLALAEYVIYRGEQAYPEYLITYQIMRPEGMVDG
T1 sequence (O95271 1023-1327): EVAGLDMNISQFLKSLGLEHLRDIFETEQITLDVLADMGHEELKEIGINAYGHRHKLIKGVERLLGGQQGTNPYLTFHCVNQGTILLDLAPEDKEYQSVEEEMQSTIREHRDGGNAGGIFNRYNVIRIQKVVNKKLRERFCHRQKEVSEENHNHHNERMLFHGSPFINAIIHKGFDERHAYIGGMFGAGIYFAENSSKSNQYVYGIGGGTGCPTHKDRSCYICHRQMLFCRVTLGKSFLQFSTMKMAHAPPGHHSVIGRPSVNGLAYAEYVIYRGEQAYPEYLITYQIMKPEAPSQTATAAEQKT
T3 sequence (O95271 1023-1327): as above

Compound	growth of DLD-1-cancer cells [1]	IC50 [2]	EC50 [3]	IC50 [4]	IC50 [5]
Oc1nc(-c2ccc(C(F)(F)F)cc2)nc2c1CSCC2 [XAV939]	inhibits growth	–	–	–	–
Cc1ccc2cc(-c3ccc(C(C)(C)O)cc3)[nH]c(=O)c2c1 [Compound A7, 3-[4-(1-hydroxy-1-methyl-ethyl)-phenyl]-7-methyl-2H-isoquinolin-1-one]	–	300 to 3000 nM	300 to 3000 nM	300 to 3000 nM	–
COC(=O)c1ccc(-c2cc3ccc(F)cc3c(=O)[nH]2)cc1 [Compound A4, 4-(7-Fluoro-1-oxo-1,2-dihydro-isoquinolin-3-yl)-benzoic acid methyl ester]	–	300 to 3000 nM	300 to 3000 nM	300 to 3000 nM	–
CC(C)(F)c1ccc(-c2cc3ccccc3c(=O)[nH]2)cc1 [Compound A13, 3-[4-(1-fluoro-1-methyl-ethyl)-phenyl]-2H-isoquinolin-1-one]	–	< 300 nM	300 to 3000 nM	300 to 3000 nM	–
Cn1cc(-c2ccc(-c3cc4ccc(Cl)cc4c(=O)[nH]3)cc2)cn1 [Compound A32, 7-chloro-3-[4-(1-methyl-1H-pyrazol-4-yl)-phenyl]-2H-isoquinolin-1-one]	–	< 300 nM	300 to 3000 nM	300 to 3000 nM	–
Cc1ccc(-c2cc3c(C(F)(F)F)cccc3c(=O)[nH]2)cc1 [Compound A30, 3-(p-tolyl)-5-(trifluoromethyl)-2H-isoquinolin-1-one]	–	300 to 3000 nM	–	3000 to 50000 nM	–
COC(=O)c1ccc(-c2cc3ccccc3c(=O)[nH]2)cc1 [Compound A2, 4-(1-oxo-1,2-dihydro-isoquinolin-3-yl)-benzoic acid methyl ester]	–	< 300 nM	300 to 3000 nM	< 300 nM	–
CC1(c2ccc(-c3cc4ccc(F)cc4c(=O)[nH]3)cc2)CCCO1 (stereo not drawn) [Compound A21, 7-fluoro-3-[4-(2-methyltetrahydrofuran-2-yl)phenyl]-2H-isoquinolin-1-one]	–	< 300 nM	300 to 3000 nM	300 to 3000 nM	–
CC(C)(C)c1ccc(-c2cc3cnccc3c(=O)[nH]2)cc1 [Compound A1, 3-(4-tert-butyl-phenyl)-2H-[2,6]naphthyridin-1-one]	–	< 300 nM	< 300 nM	300 to 3000 nM	< 300 nM
Cn1cc(-c2ccc(-c3cc4cnccc4c(=O)[nH]3)cc2)cn1 [Compound A19, 3-[4-(1-Methyl-1H-pyrazol-4-yl)-phenyl]-2H-[2,6]naphthyridin-1-one]	–	300 to 3000 nM	–	300 to 3000 nM	–
CC(C)(O)c1ccc(-c2cc3ccc(Cl)cc3c(=O)[nH]2)cc1 [Compound A25, 7-chloro-3-[4-(1-hydroxy-1-methyl-ethyl)phenyl]-2H-isoquinolin-1-one]	–	< 300 nM	300 to 3000 nM	300 to 3000 nM	–
O=c1[nH]c(-c2ccc(CO)cc2)cc2ccccc12 [Compound A8, 3-(4-hydroxymethyl-phenyl)-2H-isoquinolin-1-one]	–	< 300 nM	< 300 nM	300 to 3000 nM	–
